Counter-ions that a name gives are not always drawn.
How the values were obtained:
Type in all cases: in vivo
Setaria = test: Pre-emergence test/greenhouse; conditions: 500 g ai./ha, greenhouse, after three weeks
Method: (§1) Pre-emergence Test/greenhouse Solvent: 5 parts by weight of acetone Emulsifier: 1 part by weight of alkylaryl polyglycol ether To produce a suitable preparation of active compound, 1 part by weight of active compound is mixed with the stated amount of solvent, the stated amount of emulsifier is added and the concentrate is diluted with water to the desired concentration. Seeds of the test plants are sown in normal soil. After about 24 hours, the soil is sprayed with the preparation of active compound such that the particular amount of active compound desired is applied per unit area. The concentration of the spray liquor is chosen so that the particular amount of active compound desired is applied in 500 litres of water per hectare. After three weeks, the degree of damage to the plants is tested in % damage in comparison to the development of the untreated control. The figures denote: 0% no effect (like untreated control) 100%=total destruction

Wheat [1] = test: Pre-emergence test/greenhouse; conditions: greenhouse; for degree of damage to the plants (% damage in comparison to the untreated control): Wheat, after three weeks
Method: as §1

Bromus [2] = test: Pre-emergence test/greenhouse; conditions: greenhouse, after three weeks
Method: as §1

Lolium [3] = test: Pre-emergence test/greenhouse; conditions: 500 g ai./ha, greenhouse, after three weeks
Method: as §1

Alopecurus [4] = test: Pre-emergence test/greenhouse; conditions: greenhouse, after three weeks
Method: as §1

Avena [5] = test: Pre-emergence test/greenhouse; conditions: greenhouse, after three weeks
Method: as §1

[6] = tested on: weeds, such as, for example, Agropyron, Alopecurus, Avena, Bromus and Lolium; test: Post-emergence test/greenhouse, summary for weeds; conditions: greenhouse
Method: Post-emergence Test/greenhouse Solvent: 5 parts by weight of acetone Emulsifier: 1 part by weight of alkylaryl polyglycol ether To produce a suitable preparation of active compound, 1 part by weight of active compound is mixed with the stated amount of solvent, the stated amount of emulsifier is added and the concentrate is diluted with water to the desired concentration. Test plants which have a height of 5-15 cm are sprayed with the preparation of active compound such that the particular amounts of active compound desired are applied per unit area. The concentration of the spray liquor is chosen so that the particular amounts of active compound desired are applied in 500 l of water/ha. After three weeks, the degree of damage to the plants is assessed in % damage in comparison to the development of the untreated control. […] [“ai.”=“active ingredient”].

[7] = tested on: weeds, such as, for example, Agropyron, Alopecurus, Avena, Bromus, Lolium, Poa, Setaria and Sinapis; test: Pre-emergence test/greenhouse, summary for weeds; conditions: greenhouse
Method: as §1, with “control.” for “control. The figures denote: 0% no effect (like untreated control) 100%=total destruction”

Wheat [8] = test: Post-emergence test/greenhouse; conditions: greenhouse; for degree of damage to the plants (% damage in comparison to the untreated control): Wheat, after three weeks; for compatibility with crop plants (wheat), in words: sodium salt of (I) at 60 g/ha
Method: (§2) Post-emergence Test/greenhouse Solvent: 5 parts by weight of acetone Emulsifier: 1 part by weight of alkylaryl polyglycol ether To produce a suitable preparation of active compound, 1 part by weight of active compound is mixed with the stated amount of solvent, the stated amount of emulsifier is added and the concentrate is diluted with water to the desired concentration. Test plants which have a height of 5-15 cm are sprayed with the preparation of active compound such that the particular amounts of active compound desired are applied per unit area. The concentration of the spray liquor is chosen so that the particular amounts of active compound desired are applied in 500 l of water/ha. After three weeks, the degree of damage to the plants is assessed in % damage in comparison to the development of the untreated control. The figures denote: 0%=no effect (like untreated control) 100% total destruction

Bromus [9] = test: Post-emergence test/greenhouse; conditions: greenhouse, after three weeks
Method: as §2

Lolium [10] = test: Post-emergence test/greenhouse; conditions: greenhouse, after three weeks
Method: as §2

Alopecurus [11] = test: Post-emergence test/greenhouse; conditions: greenhouse, after three weeks
Method: as §2

Agropyron [12] = test: Post-emergence test/greenhouse; conditions: greenhouse, after three weeks
Method: as §2

Avena [13] = test: Post-emergence test/greenhouse; conditions: greenhouse, after three weeks
Method: as §2

Amaranthus = test: Pre-emergence test/greenhouse; conditions: 15 g ai./ha, greenhouse, after three weeks
Method: as §1

Sinapis = test: Pre-emergence test/greenhouse; conditions: 15 g ai./ha, greenhouse, after three weeks
Method: as §1

Poa = test: Pre-emergence test/greenhouse; conditions: 15 g ai./ha, greenhouse, after three weeks
Method: as §1

Agropyron [14] = test: Pre-emergence test/greenhouse; conditions: 15 g ai./ha, greenhouse, after three weeks
Method: as §1

Compound: CCCCOc1nn(C(=O)NS(=O)(=O)c2ccccc2C(=O)OC)c(=O)n1C [(A), 2-(2-Methoxycarbonyl-phenylsulphonylaminocarbonyl)-4-methyl-5-butoxy-2,4-dihydro-3H-1,2,4-triazol-3-one]
- degree of damage to the plants (% damage in comparison to the untreated control) (Setaria): 0%
- degree of damage to the plants (% damage in comparison to the untreated control) (Wheat [1]; 500 g ai./ha): 0%
- degree of damage to the plants (% damage in comparison to the untreated control) (Bromus [2]; 500 g ai./ha): 30%
- degree of damage to the plants (% damage in comparison to the untreated control) (Lolium [3]): 0%
- degree of damage to the plants (% damage in comparison to the untreated control) (Alopecurus [4]; 500 g ai./ha): 20%
- degree of damage to the plants (% damage in comparison to the untreated control) (Avena [5]; 500 g ai./ha): 0%
- herbicidal activity (in words, compared with the sodium salt of (I)) [6]: considerably weaker herbicidal activity
- herbicidal activity (in words, compared with the sodium salt of (I)) [7]: considerably weaker herbicidal activity
- degree of damage to the plants (% damage in comparison to the untreated control) (Wheat [8]; 60 g ai./ha): 0%
- degree of damage to the plants (% damage in comparison to the untreated control) (Bromus [9]; 60 g ai./ha): 0%
- degree of damage to the plants (% damage in comparison to the untreated control) (Lolium [10]; 60 g ai./ha): 0%
- degree of damage to the plants (% damage in comparison to the untreated control) (Alopecurus [11]; 60 g ai./ha): 0%
- degree of damage to the plants (% damage in comparison to the untreated control) (Agropyron [12]; 60 g ai./ha): 0%
- degree of damage to the plants (% damage in comparison to the untreated control) (Avena [13]; 60 g ai./ha): 50%

Compound: CCOc1nn(C(=O)NS(=O)(=O)c2ccccc2C(=O)OC)c(=O)n1C [(B), 2-(2-Methoxycarbonyl-phenylsulphonylaminocarbonyl)-4-methyl-5-ethoxy-2,4-dihydro-3H-1,2,4-triazol-3-one-sodium salt]
- degree of damage to the plants (% damage in comparison to the untreated control) (Amaranthus): 70%
- degree of damage to the plants (% damage in comparison to the untreated control) (Sinapis): 70%
- degree of damage to the plants (% damage in comparison to the untreated control) (Poa): 70%
- degree of damage to the plants (% damage in comparison to the untreated control) (Wheat [1]; 15 g ai./ha): 40%
- compatibility with crop plants (wheat), in words (Wheat [1]; sodium salt of (I) at 15 g/ha to 60 g/ha): not entirely compatible with wheat
- degree of damage to the plants (% damage in comparison to the untreated control) (Agropyron [14]): 40%
- degree of damage to the plants (% damage in comparison to the untreated control) (Avena [5]; 15 g ai./ha): 60%
- degree of damage to the plants (% damage in comparison to the untreated control) (Wheat [8]; 30 g ai./ha): 60%
- compatibility with crop plants (wheat), in words (Wheat [8]): not entirely compatible with wheat
- degree of damage to the plants (% damage in comparison to the untreated control) (Bromus [9]; 30 g ai./ha): 80%
- degree of damage to the plants (% damage in comparison to the untreated control) (Lolium [10]; 30 g ai./ha): 90%
- degree of damage to the plants (% damage in comparison to the untreated control) (Alopecurus [11]; 30 g ai./ha): 90%
- degree of damage to the plants (% damage in comparison to the untreated control) (Agropyron [12]; 30 g ai./ha): 90%
- degree of damage to the plants (% damage in comparison to the untreated control) (Avena [13]; 30 g ai./ha): 90%

Compound: COC(=O)c1ccccc1S(=O)(=O)NC(=O)n1nc(OC(C)C)n(C)c1=O.[Na] [(C), 2-(2-Methoxycarbonyl-phenylsulphonylaminocarbonyl)-4-methyl-5-isopropoxy-2,4-dihydro-3H-1,2,4-triazol-3-one-sodium salt]
- herbicidal activity (in words, compared with the sodium salt of (I)) [6]: considerably weaker herbicidal activity
- herbicidal activity (in words, compared with the sodium salt of (I)) [7]: considerably weaker herbicidal activity
- degree of damage to the plants (% damage in comparison to the untreated control) (Wheat [8]; 60 g ai./ha): 0%
- degree of damage to the plants (% damage in comparison to the untreated control) (Bromus [9]; 60 g ai./ha): 70%
- degree of damage to the plants (% damage in comparison to the untreated control) (Lolium [10]; 60 g ai./ha): 70%
- degree of damage to the plants (% damage in comparison to the untreated control) (Alopecurus [11]; 60 g ai./ha): 70%
- degree of damage to the plants (% damage in comparison to the untreated control) (Agropyron [12]; 60 g ai./ha): 60%
- degree of damage to the plants (% damage in comparison to the untreated control) (Avena [13]; 60 g ai./ha): 50%

Compound: CCCOc1nn(C(=O)NS(=O)(=O)c2ccccc2C(=O)OCC)c(=O)n1C [(D), 2-(2-Ethoxycarbonyl-phenylsulphonylaminocarbonyl)-4-methyl-5-propoxy-2,4-dihydro-3H-1,2,4-triazol-3-one]
- herbicidal activity (in words, compared with the sodium salt of (I)) [6]: considerably weaker herbicidal activity
- herbicidal activity (in words, compared with the sodium salt of (I)) [7]: considerably weaker herbicidal activity
- degree of damage to the plants (% damage in comparison to the untreated control) (Wheat [8]; 60 g ai./ha): 0%
- degree of damage to the plants (% damage in comparison to the untreated control) (Bromus [9]; 60 g ai./ha): 80%
- degree of damage to the plants (% damage in comparison to the untreated control) (Lolium [10]; 60 g ai./ha): 30%
- degree of damage to the plants (% damage in comparison to the untreated control) (Agropyron [12]; 60 g ai./ha): 70%
- degree of damage to the plants (% damage in comparison to the untreated control) (Avena [13]; 60 g ai./ha): 20%

Compound: CCCOn1c(C)nn(C(=O)NS(=O)(=O)c2ccccc2C(=O)OC)c1=O [(E), 2-(2-Methoxyxcarbonyl-phenylsulphonylaminocarbonyl)-4-propoxy-5-methyl-2,4-dihydro-3H-1,2,4-triazol-3-one]
- herbicidal activity (in words, compared with the sodium salt of (I)) [6]: considerably weaker herbicidal activity
- herbicidal activity (in words, compared with the sodium salt of (I)) [7]: considerably weaker herbicidal activity
- degree of damage to the plants (% damage in comparison to the untreated control) (Wheat [8]; 250 g ai./ha): 0%
- degree of damage to the plants (% damage in comparison to the untreated control) (Bromus [9]; 250 g ai./ha): 50%
- degree of damage to the plants (% damage in comparison to the untreated control) (Lolium [10]; 250 g ai./ha): 50%
- degree of damage to the plants (% damage in comparison to the untreated control) (Alopecurus [11]; 250 g ai./ha): 70%
- degree of damage to the plants (% damage in comparison to the untreated control) (Avena [13]; 250 g ai./ha): 0%

Compound: CCCOc1nn(C(=O)NS(=O)(=O)c2ccccc2C(=O)OC)c(=O)n1CC [(F), 2-(2-Methoxycarbonyl-phenylsulphonylaminocarbonyl)-4-ethyl-5-propoxy-2,4-dihydro-3H-1,2,4-triazol-3-one]
- degree of damage to the plants (% damage in comparison to the untreated control) (Amaranthus): 70%
- degree of damage to the plants (% damage in comparison to the untreated control) (Sinapis): 70%
- degree of damage to the plants (% damage in comparison to the untreated control) (Poa): 0%
- degree of damage to the plants (% damage in comparison to the untreated control) (Wheat [1]; 15 g ai./ha): 0%
- degree of damage to the plants (% damage in comparison to the untreated control) (Bromus [2]; 15 g ai./ha): 20%
- degree of damage to the plants (% damage in comparison to the untreated control) (Alopecurus [4]; 15 g ai./ha): 40%
- degree of damage to the plants (% damage in comparison to the untreated control) (Agropyron [14]): 0%
- degree of damage to the plants (% damage in comparison to the untreated control) (Avena [5]; 15 g ai./ha): 0%
- herbicidal activity (in words, compared with the sodium salt of (I)) [6]: considerably weaker herbicidal activity
- herbicidal activity (in words, compared with the sodium salt of (I)) [7]: considerably weaker herbicidal activity
- degree of damage to the plants (% damage in comparison to the untreated control) (Wheat [8]; 60 g ai./ha): 20%
- compatibility with crop plants (wheat), in words (Wheat [8]): not entirely compatible with wheat
- degree of damage to the plants (% damage in comparison to the untreated control) (Bromus [9]; 60 g ai./ha): 50%
- degree of damage to the plants (% damage in comparison to the untreated control) (Lolium [10]; 60 g ai./ha): 30%
- degree of damage to the plants (% damage in comparison to the untreated control) (Alopecurus [11]; 60 g ai./ha): 50%
- degree of damage to the plants (% damage in comparison to the untreated control) (Agropyron [12]; 60 g ai./ha): 50%
- degree of damage to the plants (% damage in comparison to the untreated control) (Avena [13]; 60 g ai./ha): 40%

Reference: patent US6395684B1, “Selective herbicides based on a substituted phenyl sulfonyl amino carbonyl triazolinone” (Bayer Aktiengesellschaft, priority 1998, dated 2002)
